Measured values: PubChem BioAssay (NCI)
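Method: 48-hour compound exposure of cells in 96-well plates, five concentrations, linear interpolation of endpoints. GI50 marks 50% less growth. TGI denotes the concentration required for complete inhibition of growth.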

Assays:
Assay in all cases: NCI tumour cell line growth inhibition, 48 h
[1] = test system: A549 NSCLC
[2] = test system: CAKI-1 renal
[3] = test system: COLO 205 colon
[4] = test system: HCT-116 colon
[5] = test system: HT29 colon
[6] = test system: LOX IMVI melanoma
[7] = test system: OVCAR-3 ovarian
[8] = test system: PC-3 prostate
[9] = test system: SK-MEL-28 melanoma
[10] = test system: NCI-H460 lung

Work on `CCOC(=O)c1c(-c2ccc(OC)cc2)c(C#N)c(=S)n(C2OC(CO)C(O)C(O)C2O)c1C` (configuration not stated) yielded a TGI [1] greater than 100 µM, a TGI [2] greater than 100 µM and a TGI [3] greater than 100 µM. The TGI [4] was greater than 100 µM, the TGI [5] was greater than 100 µM and the TGI [6] was greater than 100 µM. For the same compound, the TGI [7] was greater than 100 µM, the TGI [8] was greater than 100 µM and the TGI [9] was greater than 100 µM.

`C[C@@H](CCO)OC1OC(COC(=O)C(C)(C)C)C(OC(=O)C(C)(C)C)C(OC(=O)C(C)(C)C)C1OC(=O)C(C)(C)C` (some centres not stated) showed a TGI [1] greater than 100 µM, a TGI [2] greater than 100 µM and a TGI [3] greater than 100 µM. The TGI [4] was greater than 100 µM, the TGI [5] was 35.7 µM and the TGI [6] was greater than 100 µM. For the same compound, the TGI [10] was 36.6 µM, the TGI [7] was greater than 100 µM and the TGI [8] was greater than 100 µM. The TGI [9] was greater than 100 µM.

`O=c1[nH]nc(-c2ccc([N+](=O)[O-])cc2)[nH]1` gave a TGI [1] greater than 100 µM, a TGI [2] greater than 100 µM and a TGI [3] greater than 100 µM. It also gave a TGI [4] greater than 100 µM, a TGI [5] greater than 100 µM and a TGI [6] greater than 100 µM. For the same compound, the TGI [10] was greater than 100 µM, the TGI [7] was greater than 100 µM and the TGI [8] was greater than 100 µM. It also gave a TGI [9] greater than 100 µM.

Work on `COC(=O)c1ccc2cc(O)ccc2c1` yielded a TGI [1] greater than 100 µM, a TGI [2] greater than 100 µM and a TGI [3] greater than 100 µM. It also gave a TGI [4] greater than 100 µM, a TGI [5] greater than 100 µM and a TGI [6] greater than 100 µM. For the same compound, the TGI [7] was greater than 100 µM, the TGI [8] was greater than 100 µM and the TGI [9] was greater than 100 µM.

Compound `Nn1nnc2ccccc21` has a TGI [1] greater than 100 µM, a TGI [3] greater than 100 µM and a TGI [4] greater than 100 µM. The TGI [5] was greater than 100 µM, the TGI [6] was greater than 100 µM and the TGI [10] was greater than 100 µM. It also gave a TGI [7] greater than 100 µM, a TGI [8] greater than 100 µM and a TGI [9] greater than 100 µM.

`O=C(O)Cn1c[n+](NC(=O)Cc2ccccc2)cn1` showed a TGI [1] greater than 10 µM, a TGI [2] greater than 10 µM and a TGI [3] greater than 10 µM. For the same compound, the TGI [4] was greater than 10 µM, the TGI [5] was greater than 10 µM and the TGI [6] was greater than 10 µM. It also gave a TGI [10] greater than 10 µM, a TGI [7] greater than 10 µM and a TGI [9] greater than 10 µM.

In the case of `CC(=O)Nc1ccc2c(c1)nc1c3ccccc3ccn21`, the TGI [1] is reported as greater than 100 µM, the TGI [2] is reported as greater than 100 µM and the TGI [3] is reported as greater than 100 µM. It also gave a TGI [4] greater than 100 µM, a TGI [5] greater than 100 µM and a TGI [6] greater than 100 µM. For the same compound, the TGI [10] was greater than 100 µM, the TGI [8] was greater than 100 µM and the TGI [9] was greater than 100 µM.

`CC1=NN(c2cccc(Cl)c2)C2(C1=Cc1ccc(N(C)C)cc1)C(Cl)C(=O)N2c1nc2ccccc2s1` (configuration not stated) was tested, and the TGI [2] was greater than 100 µM, the TGI [4] was greater than 100 µM and the TGI [5] was greater than 100 µM. For the same compound, the TGI [6] was greater than 100 µM, the TGI [10] was greater than 100 µM and the TGI [7] was greater than 100 µM. It also gave a TGI [8] greater than 100 µM and a TGI [9] greater than 100 µM.

With `O=C(O)C(CS)N=Cc1nc(-c2ccccc2)oc1O` (configuration not stated) the TGI [1] was greater than 100 µM, the TGI [3] was greater than 100 µM and the TGI [4] was greater than 100 µM. For the same compound, the TGI [5] was greater than 100 µM, the TGI [6] was greater than 100 µM and the TGI [10] was greater than 100 µM. The TGI [7] was greater than 100 µM and the TGI [9] was greater than 100 µM.

For `O=C1c2cccnc2C(=O)c2c1nc1ccccc1c2-c1ccc2c3c(nc4ccccc42)C(=O)c2cccnc2-c13`, the TGI [1] was 6.86 µM, the TGI [2] was 10 µM and the TGI [3] was 5.68 µM. For the same compound, the TGI [4] was 1.73 µM, the TGI [5] was 7.57 µM and the TGI [6] was 9.12 µM. It also gave a TGI [10] of 3.97 µM, a TGI [8] of 37.2 µM and a TGI [9] of 13.5 µM.

With `CCc1ccc(OCc2ccccc2C(=O)Nc2ccc3nc(C)cc(N)c3c2)cc1` the GI50 [1] was 1.56 µM, the TGI [1] was 3.27 µM and the GI50 [3] was 0.24 µM. It also gave a TGI [3] of 0.692 µM, a GI50 [7] of 1.62 µM and a TGI [7] of 3.04 µM. For the same compound, the GI50 [8] was 1.52 µM, the TGI [8] was 2.93 µM and the GI50 [9] was 1.75 µM. For the same compound, the TGI [9] was 3.29 µM.

`C=CCN(c1cc(OC)c2[nH]c(C(=O)O)c(C)c2c1[N+](=O)[O-])S(C)(=O)=O` showed a TGI [1] greater than 100 µM, a TGI [2] greater than 100 µM and a TGI [3] greater than 100 µM. The TGI [4] was greater than 100 µM, the TGI [6] was greater than 100 µM and the TGI [10] was greater than 100 µM. For the same compound, the TGI [7] was greater than 100 µM, the TGI [8] was greater than 100 µM and the TGI [9] was greater than 100 µM.

`COc1cccc(Nc2nc3c([nH]2)c(=O)n(C)c(=O)n3C)c1` showed a TGI [1] greater than 10 µM, a TGI [2] greater than 10 µM and a TGI [3] greater than 10 µM. It also gave a TGI [5] greater than 10 µM, a TGI [6] greater than 10 µM and a TGI [8] greater than 10 µM. It also gave a TGI [9] greater than 10 µM.

`O/N=C/[C@H]1COC2(CCCCC2)O1` showed a TGI [1] greater than 100 µM, a TGI [3] greater than 100 µM and a TGI [4] greater than 100 µM. For the same compound, the TGI [5] was greater than 100 µM, the TGI [6] was greater than 100 µM and the TGI [7] was greater than 100 µM. The TGI [8] was greater than 100 µM and the TGI [9] was greater than 100 µM.

Work on `Cn1c(=O)c2[nH]c(Nc3cccc(Cl)c3)nc2n(C)c1=O` yielded a TGI [1] greater than 10 µM, a TGI [2] greater than 10 µM and a TGI [3] greater than 10 µM. For the same compound, the TGI [5] was greater than 10 µM, the TGI [6] was greater than 10 µM and the TGI [8] was greater than 10 µM. It also gave a TGI [9] greater than 10 µM.

`CCOP(=O)(COCCn1nc(Br)c(=O)[nH]c1=O)OCC` gave a TGI [1] greater than 100 µM, a TGI [2] greater than 100 µM and a TGI [3] greater than 100 µM. For the same compound, the TGI [6] was greater than 100 µM, the TGI [10] was greater than 100 µM and the TGI [7] was greater than 100 µM. It also gave a TGI [8] greater than 100 µM and a TGI [9] greater than 100 µM.

`Cc1ccc(S(=O)(=O)N2CCc3cc(O)c([N+](=O)[O-])cc32)cc1` was tested, and the TGI [1] was greater than 100 µM, the TGI [2] was greater than 100 µM and the TGI [3] was greater than 100 µM. The TGI [4] was greater than 100 µM, the TGI [6] was greater than 100 µM and the TGI [8] was greater than 100 µM. The TGI [9] was greater than 100 µM.

In the case of `O=C1c2cc3c(cc2-c2c1c1cc(F)c(F)cc1c(=O)n2C[C@H](O)CO)OCO3`, the GI50 [1] is reported as 0.069 µM, the TGI [1] is reported as 1.12 µM and the GI50 [2] is reported as 0.0288 µM. The TGI [2] was 0.206 µM, the GI50 [3] was 0.103 µM and the TGI [3] was 1.2 µM. The GI50 [10] was 0.031 µM, the TGI [10] was 0.141 µM and the GI50 [7] was 0.224 µM. It also gave a TGI [7] of 0.753 µM, a GI50 [8] of 0.127 µM and a TGI [8] greater than 100 µM. It also gave a GI50 [9] of 0.28 µM and a TGI [9] of 7.15 µM.

Compound `CN(C)C(=O)/N=C1\SC(=Nc2ccccc2)C(=Nc2ccccc2)N1c1ccc([N+](=O)[O-])cc1` has a TGI [2] greater than 100 µM, a TGI [3] greater than 100 µM and a TGI [4] greater than 100 µM. It also gave a TGI [5] greater than 100 µM, a TGI [10] greater than 100 µM and a TGI [7] greater than 100 µM. The TGI [8] was greater than 100 µM and the TGI [9] was greater than 100 µM.

For `CCc1nc2c([nH]1)C(=O)c1ccccc1C2=O`, the TGI [1] was greater than 100 µM, the TGI [2] was greater than 100 µM and the TGI [4] was 80.6 µM. For the same compound, the TGI [5] was greater than 100 µM, the TGI [10] was greater than 100 µM and the TGI [7] was 61.7 µM. It also gave a TGI [9] greater than 100 µM.

In the case of `O=c1ccn([C@@H]2C=C(CO)[C@@H](O)[C@H]2O)c(=O)[nH]1`, the TGI [1] is reported as greater than 625 µM, the TGI [2] is reported as greater than 625 µM and the TGI [3] is reported as greater than 625 µM. The TGI [4] was greater than 625 µM, the TGI [5] was greater than 625 µM and the TGI [6] was greater than 625 µM. The TGI [10] was greater than 625 µM, the TGI [7] was greater than 625 µM and the TGI [9] was greater than 625 µM.

With `COc1ccc(CCn2ccc(=O)c(O)c2C)cc1OC` the TGI [1] was greater than 100 µM, the TGI [2] was 12 µM and the TGI [3] was greater than 100 µM. For the same compound, the TGI [4] was greater than 100 µM, the TGI [5] was 77.4 µM and the TGI [6] was 78.9 µM. It also gave a TGI [10] of 31.2 µM and a TGI [8] greater than 100 µM.
